In ChEMBL document CHEMBL2040815, “Sentulic acid: a cytotoxic ring A-seco triterpenoid from Sandoricum koetjape Merr” (Bioorg Med Chem Lett, 2012) one finds Activity, IC50 and inhibition data, which are given here for 2 compounds.

As usually defined, the IC50 is the concentration at which inhibition is half-maximal. A low value points to higher potency. For orientation: inhibition means the relative decrease from the control value, in per cent.

Test [1] relates to HL-60. Description: Induction of apoptosis in human HL60 cells assessed as fragmentation of the nuclei at 50 to 100 uM after 24 hrs by Hoechst 33342 staining. Format: functional, cell-based.
The subject of test [2] is HL-60. The experiment in a line: Cytotoxicity against human HL60 cells after 48 hrs by MTT assay. Format: functional, cell-based. To be noted: HL-60, 48 h. (Tetrazolium assays rely on reduction of a dye to a coloured formazan, in cell work by metabolically active cells.)
Test [3] concerns HL-60. Description: Cytotoxicity against human HL60 cells assessed as decrease in cell viability after 24 to 72 hrs by trypan blue dye exclusion test. In kind it is functional, cell-based.
In test [4] the test system is HL-60. The experiment in a line: Induction of apoptosis in human HL60 cells assessed as condensation of chromatin at 50 to 100 uM after 24 hrs by Hoechst 33342 staining. In kind it is functional, cell-based.
Test [5] concerns HL-60. Description: Cytotoxicity against human HL60 cells assessed as inhibition of cell proliferation at 25 uM after 24 to 72 hrs by trypan blue dye exclusion test relative to control. In kind it is functional.
The subject of test [6] is HL-60. Description: Induction of apoptosis in human HL60 cells assessed as DNA fragmentation laddering at 100 uM by agarose gel electrophoresis. Format: functional, cell-based.
The subject of test [7] is HL-60. Description: Cytotoxicity against human HL60 cells assessed as inhibition of cell proliferation at 100 uM after 24 to 72 hrs by trypan blue dye exclusion test. Format: functional, cell-based.

Calls of active or inactive are those of the source. The rule behind the calls is not given here.

Turning to `CC1(C)CC[C@]2(C)CC[C@]3(C(=O)O)C(=CC[C@@H]4[C@@]5(C)CCC(=O)C(C)(C)[C@@H]5CC[C@]43C)[C@@H]2C1`, the result in the test on HL-60 [1], with HL-60 [4] and with HL-60 [6] was Active. The same compound came in with an IC50 in the test with HL-60 [2] of 27.4 µM. Besides, the Activity result in the test with HL-60 [3] was “Dose-dependent effect”. The inhibition at 25 µM in the test with HL-60 [5] amounted to 50%. Moreover, the inhibition entry with HL-60 [7] was “Active”.

As to `C=C(C)[C@@H]1CC[C@]2(C)[C@H](CC=C3[C@@H]4CC(C)(C)CC[C@]4(C)CC[C@]32C(=O)O)[C@@]1(C)CCC(=O)O` [SENTULIC ACID], the result in the test on HL-60 [1], in the test with HL-60 [4] and in the test on HL-60 [6] was Active. This compound also had an IC50 in the test on HL-60 [2] of 37 µM. Also, in the test on HL-60 [3], the Activity result is “Dose-dependent effect”. Besides, the inhibition at 25 µM with HL-60 [5] stood at 50%. The inhibition entry with HL-60 [7] is “Active”.
